In PMC6437697 (Journal of Medicinal Chemistry, 2019):

Assays:
Assay in all cases: KINOMEscan
Format in all cases: binding
Settings in all cases: read-out: % control activity remaining
BIKE = biological target: T1, BIKE (Homo sapiens, UniProt Q9NSY1)
T1 construct: purchased Eurofins DiscoverX KINOMEscan

CAMK1 = biological target: T2, CAMK1 (Homo sapiens, UniProt Q14012)
T2 construct: purchased Eurofins DiscoverX KINOMEscan

EPHB3 = biological target: T3, EPHB3 (Homo sapiens, UniProt P54753)
T3 construct: purchased Eurofins DiscoverX KINOMEscan
T3 sequence (P54753 34-998): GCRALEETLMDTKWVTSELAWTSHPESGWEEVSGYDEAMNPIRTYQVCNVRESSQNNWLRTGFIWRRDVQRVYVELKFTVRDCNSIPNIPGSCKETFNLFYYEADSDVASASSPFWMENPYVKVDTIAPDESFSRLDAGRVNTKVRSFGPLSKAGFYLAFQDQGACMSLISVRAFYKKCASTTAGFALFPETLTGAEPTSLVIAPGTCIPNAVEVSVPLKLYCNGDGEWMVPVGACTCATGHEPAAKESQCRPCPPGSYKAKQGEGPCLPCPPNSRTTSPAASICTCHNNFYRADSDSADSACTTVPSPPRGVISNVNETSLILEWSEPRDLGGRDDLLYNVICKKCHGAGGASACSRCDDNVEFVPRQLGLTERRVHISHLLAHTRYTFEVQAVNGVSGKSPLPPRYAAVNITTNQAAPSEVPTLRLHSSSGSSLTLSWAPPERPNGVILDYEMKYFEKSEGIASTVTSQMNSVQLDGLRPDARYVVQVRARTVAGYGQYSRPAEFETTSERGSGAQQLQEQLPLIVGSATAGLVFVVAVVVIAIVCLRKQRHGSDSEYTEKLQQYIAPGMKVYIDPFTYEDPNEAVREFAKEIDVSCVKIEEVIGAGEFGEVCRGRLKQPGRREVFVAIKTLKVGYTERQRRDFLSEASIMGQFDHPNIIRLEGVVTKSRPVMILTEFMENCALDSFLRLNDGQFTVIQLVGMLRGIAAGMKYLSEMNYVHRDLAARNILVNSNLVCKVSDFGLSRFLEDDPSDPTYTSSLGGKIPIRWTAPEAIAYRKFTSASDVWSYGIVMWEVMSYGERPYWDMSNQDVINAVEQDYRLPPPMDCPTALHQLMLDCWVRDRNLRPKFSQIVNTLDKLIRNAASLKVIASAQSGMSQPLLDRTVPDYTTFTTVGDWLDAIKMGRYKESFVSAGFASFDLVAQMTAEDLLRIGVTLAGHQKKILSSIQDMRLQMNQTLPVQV

HUNK = biological target: T4, HUNK (Homo sapiens, UniProt P57058)
T4 construct: purchased Eurofins DiscoverX KINOMEscan
T4 sequence (P57058 1-714): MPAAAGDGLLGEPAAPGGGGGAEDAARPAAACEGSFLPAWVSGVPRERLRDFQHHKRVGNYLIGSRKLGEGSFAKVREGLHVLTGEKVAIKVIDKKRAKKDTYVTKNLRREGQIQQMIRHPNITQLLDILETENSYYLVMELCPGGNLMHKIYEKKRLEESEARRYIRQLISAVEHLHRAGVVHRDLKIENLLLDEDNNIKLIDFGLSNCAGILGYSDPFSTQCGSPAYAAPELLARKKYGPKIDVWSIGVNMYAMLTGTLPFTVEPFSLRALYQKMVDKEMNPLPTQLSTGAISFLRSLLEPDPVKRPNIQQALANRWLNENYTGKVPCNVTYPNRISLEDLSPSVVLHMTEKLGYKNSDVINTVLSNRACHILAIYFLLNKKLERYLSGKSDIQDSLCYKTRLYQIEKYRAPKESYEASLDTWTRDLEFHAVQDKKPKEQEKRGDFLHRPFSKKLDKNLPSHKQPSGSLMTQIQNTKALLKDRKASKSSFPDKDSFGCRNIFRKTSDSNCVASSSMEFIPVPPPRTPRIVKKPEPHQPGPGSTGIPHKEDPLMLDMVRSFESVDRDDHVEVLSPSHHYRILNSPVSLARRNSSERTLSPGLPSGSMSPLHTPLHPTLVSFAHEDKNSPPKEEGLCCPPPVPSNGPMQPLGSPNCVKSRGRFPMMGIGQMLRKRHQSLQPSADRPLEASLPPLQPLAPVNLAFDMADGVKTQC

[1] = biological target: T5, JAK1(JH2domain-pseudokinase) (Homo sapiens, UniProt P23458)
T5 construct: JAK1(JH2domain-pseudokinase); purchased Eurofins DiscoverX KINOMEscan

PAK6 = biological target: T6, PAK6 (Homo sapiens, UniProt Q9NQU5)
T6 construct: purchased Eurofins DiscoverX KINOMEscan

TAOK1 = biological target: T7, TAOK1 (Homo sapiens, UniProt Q7L7X3)
T7 construct: purchased Eurofins DiscoverX KINOMEscan
T7 sequence (Q7L7X3 1-1001): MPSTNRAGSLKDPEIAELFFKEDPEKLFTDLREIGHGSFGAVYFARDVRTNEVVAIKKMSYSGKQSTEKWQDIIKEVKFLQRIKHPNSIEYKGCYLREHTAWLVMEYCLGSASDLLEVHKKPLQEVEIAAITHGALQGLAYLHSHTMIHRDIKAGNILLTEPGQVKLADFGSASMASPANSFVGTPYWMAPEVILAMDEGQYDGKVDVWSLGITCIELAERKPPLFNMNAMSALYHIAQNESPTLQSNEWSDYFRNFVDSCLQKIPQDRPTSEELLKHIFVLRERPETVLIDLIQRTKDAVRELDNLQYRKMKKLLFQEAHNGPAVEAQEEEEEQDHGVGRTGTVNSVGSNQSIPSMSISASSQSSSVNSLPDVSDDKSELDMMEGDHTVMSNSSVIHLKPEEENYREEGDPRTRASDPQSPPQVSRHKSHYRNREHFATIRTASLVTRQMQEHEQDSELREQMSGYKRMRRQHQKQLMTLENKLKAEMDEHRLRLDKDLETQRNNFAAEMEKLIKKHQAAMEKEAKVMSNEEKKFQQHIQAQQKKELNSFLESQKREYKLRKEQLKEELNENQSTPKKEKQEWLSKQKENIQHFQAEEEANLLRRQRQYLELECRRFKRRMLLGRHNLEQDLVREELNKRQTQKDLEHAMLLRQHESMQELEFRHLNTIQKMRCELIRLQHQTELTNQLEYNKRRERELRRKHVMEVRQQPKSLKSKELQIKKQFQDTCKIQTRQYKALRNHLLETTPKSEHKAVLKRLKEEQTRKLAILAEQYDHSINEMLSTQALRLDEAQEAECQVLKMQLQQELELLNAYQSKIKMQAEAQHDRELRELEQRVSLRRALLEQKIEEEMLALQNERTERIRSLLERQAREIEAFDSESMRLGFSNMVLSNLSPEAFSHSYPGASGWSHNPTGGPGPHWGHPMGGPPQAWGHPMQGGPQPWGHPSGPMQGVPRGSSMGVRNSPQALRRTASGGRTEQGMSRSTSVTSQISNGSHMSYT

YES = biological target: T8, YES (Homo sapiens, UniProt P07947)
T8 construct: purchased Eurofins DiscoverX KINOMEscan
T8 sequence (P07947 whole entry): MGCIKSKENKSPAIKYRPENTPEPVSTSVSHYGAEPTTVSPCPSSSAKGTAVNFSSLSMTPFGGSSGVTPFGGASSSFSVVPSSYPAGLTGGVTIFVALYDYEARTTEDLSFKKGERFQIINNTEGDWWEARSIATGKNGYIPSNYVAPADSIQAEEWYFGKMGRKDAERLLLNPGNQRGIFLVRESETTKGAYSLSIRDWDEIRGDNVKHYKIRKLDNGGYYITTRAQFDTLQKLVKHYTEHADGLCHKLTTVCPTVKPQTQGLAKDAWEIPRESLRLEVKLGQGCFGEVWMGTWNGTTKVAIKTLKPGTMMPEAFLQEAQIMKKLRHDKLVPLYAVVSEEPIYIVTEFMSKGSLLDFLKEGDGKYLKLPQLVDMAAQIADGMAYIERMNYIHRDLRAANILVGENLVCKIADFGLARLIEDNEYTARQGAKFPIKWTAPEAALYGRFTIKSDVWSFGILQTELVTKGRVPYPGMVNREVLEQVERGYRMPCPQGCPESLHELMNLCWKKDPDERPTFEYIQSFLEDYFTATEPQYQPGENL

T2 sequence (Q14012 whole entry, looked up): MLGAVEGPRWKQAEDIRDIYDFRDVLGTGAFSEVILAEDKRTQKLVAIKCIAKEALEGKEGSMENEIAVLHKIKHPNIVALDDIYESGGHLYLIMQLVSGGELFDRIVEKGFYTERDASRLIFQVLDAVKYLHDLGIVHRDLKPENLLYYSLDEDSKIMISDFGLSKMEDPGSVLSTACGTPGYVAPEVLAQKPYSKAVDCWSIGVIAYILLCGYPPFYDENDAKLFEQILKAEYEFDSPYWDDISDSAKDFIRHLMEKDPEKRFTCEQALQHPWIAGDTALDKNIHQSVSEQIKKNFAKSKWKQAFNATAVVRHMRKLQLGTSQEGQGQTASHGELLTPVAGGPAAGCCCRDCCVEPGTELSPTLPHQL
T6 sequence (Q9NQU5 whole entry): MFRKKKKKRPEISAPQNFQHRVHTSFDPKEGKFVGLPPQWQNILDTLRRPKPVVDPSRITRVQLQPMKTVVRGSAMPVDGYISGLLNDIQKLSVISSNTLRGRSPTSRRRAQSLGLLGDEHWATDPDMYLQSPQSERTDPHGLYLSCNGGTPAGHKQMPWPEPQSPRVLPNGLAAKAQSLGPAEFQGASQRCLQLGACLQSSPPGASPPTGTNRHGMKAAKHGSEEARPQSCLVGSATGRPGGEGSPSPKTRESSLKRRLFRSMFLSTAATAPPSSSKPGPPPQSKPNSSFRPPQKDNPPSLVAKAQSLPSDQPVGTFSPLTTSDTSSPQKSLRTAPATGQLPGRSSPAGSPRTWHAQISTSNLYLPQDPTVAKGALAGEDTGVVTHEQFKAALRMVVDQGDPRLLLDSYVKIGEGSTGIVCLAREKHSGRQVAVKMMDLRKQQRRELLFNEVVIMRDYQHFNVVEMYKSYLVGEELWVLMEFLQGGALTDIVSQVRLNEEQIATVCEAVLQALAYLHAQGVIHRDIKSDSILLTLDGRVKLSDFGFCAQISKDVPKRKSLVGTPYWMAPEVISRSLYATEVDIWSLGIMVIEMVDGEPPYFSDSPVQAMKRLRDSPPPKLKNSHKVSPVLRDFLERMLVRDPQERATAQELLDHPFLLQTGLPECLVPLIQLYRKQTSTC
T1 sequence (Q9NSY1 whole entry): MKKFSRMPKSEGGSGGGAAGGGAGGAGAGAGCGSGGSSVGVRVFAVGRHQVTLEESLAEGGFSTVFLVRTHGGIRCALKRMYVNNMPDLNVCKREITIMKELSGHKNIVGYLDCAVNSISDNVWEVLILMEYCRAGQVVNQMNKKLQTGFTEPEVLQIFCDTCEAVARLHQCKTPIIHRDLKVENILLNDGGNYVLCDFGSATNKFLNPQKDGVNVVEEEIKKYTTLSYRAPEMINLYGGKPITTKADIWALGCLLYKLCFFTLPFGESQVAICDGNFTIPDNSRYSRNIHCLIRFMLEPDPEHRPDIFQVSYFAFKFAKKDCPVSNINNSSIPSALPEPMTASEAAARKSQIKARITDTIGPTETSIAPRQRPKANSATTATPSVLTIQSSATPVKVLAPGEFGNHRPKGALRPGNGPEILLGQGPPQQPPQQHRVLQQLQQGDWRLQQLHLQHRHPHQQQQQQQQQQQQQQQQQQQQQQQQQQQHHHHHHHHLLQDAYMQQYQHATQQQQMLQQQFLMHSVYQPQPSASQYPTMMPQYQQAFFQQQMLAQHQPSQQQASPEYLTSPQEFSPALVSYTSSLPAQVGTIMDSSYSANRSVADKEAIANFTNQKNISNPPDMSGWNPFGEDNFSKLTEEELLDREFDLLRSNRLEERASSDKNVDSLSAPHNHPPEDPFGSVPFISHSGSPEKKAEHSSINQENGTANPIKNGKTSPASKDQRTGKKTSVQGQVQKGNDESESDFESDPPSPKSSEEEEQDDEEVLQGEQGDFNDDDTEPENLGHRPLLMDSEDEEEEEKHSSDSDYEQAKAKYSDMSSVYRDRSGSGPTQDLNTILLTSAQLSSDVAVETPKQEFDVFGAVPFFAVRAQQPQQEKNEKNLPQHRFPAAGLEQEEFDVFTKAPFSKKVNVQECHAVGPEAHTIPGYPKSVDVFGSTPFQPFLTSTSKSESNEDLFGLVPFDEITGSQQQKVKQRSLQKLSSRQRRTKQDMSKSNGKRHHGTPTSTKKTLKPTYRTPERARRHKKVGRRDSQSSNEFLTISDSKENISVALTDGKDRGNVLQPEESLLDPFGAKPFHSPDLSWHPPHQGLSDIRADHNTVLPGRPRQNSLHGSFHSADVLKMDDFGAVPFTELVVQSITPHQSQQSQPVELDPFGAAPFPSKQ
T5 sequence (P23458 583-855 limits assumed): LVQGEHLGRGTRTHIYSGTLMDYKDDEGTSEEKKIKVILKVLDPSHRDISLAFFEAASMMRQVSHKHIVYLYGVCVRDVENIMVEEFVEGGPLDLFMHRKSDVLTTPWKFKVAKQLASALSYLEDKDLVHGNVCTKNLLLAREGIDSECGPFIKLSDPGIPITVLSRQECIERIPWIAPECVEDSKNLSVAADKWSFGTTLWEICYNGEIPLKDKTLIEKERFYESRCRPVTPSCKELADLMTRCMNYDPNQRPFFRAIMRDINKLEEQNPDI

| Structure (SMILES) | remaining binding at 1 µM (BIKE) [%] | remaining binding at 1 µM (CAMK1) [%] | remaining binding at 1 µM (EPHB3) [%] | remaining binding at 1 µM (HUNK) [%] | remaining binding at 1 µM [1] [%] | remaining binding at 1 µM (PAK6) [%] | remaining binding at 1 µM (TAOK1) [%] | remaining binding at 1 µM (YES) [%] |
| --- | --- | --- | --- | --- | --- | --- | --- | --- |
| Clc1cc(NCC2CC2)c2ncc(-c3ccc4[nH]ncc4c3)n2n1 [compound 2, 6-Chloro-N-(cyclopropylmethyl)-3-(1H-indazol-5-yl)imidazo[1,2-b]pyridazin-8-amine] | 34 | 100 | 82 | 90 | 93 | 100 | 93 | 91 |
| O=C(CN1CCOCC1)N[C@H]1CC[C@H](Nc2cc(Cl)nn3c(-c4ccc5[nH]ncc5c4)cnc23)CC1 [compound 26] | 13 | 77 | 88 | 100 | 100 | 98 | 85 | 93 |
| CN1CCC(CNc2cc(Cl)nn3c(-c4cc5nc(Nc6ccccc6)[nH]c5cc4F)cnc23)CC1 [compound 31, 6-Chloro-3-(6-fluoro-2-(phenylamino)-1H-benzo[d]imidazol-5-yl)-N-((1-methylpiperidin-4-yl)methyl)imidazo[1,2-b]pyridazin-8-amine] | 91 | 84 | 92 | 92 | 82 | 97 | 75 | 96 |
